Assay results: PMC5397059, “Design, synthesis and structure-activity relationship study of wollamide B; a new potential anti TB agent” (PLoS ONE, 2017)
In brackets after ≈: the same amount, converted by molar mass. Several values for one entry are separate records, joined by “and”; a condition that tells them apart may be missing. Equal values may be shown once. Read-outs that look alike come from different tables or passages of the source. Non-standard residues stand in square brackets, D forms with d. Residues, ends and D or L forms follow the SMILES beside them. dPhe(4-Cl) = N[C@H](Cc1ccc(Cl)cc1)C(=O)O; dOrn = NCCC[C@@H](N)C(=O)O

How the values were obtained:
[1] = Plasma stability assay, mouse plasma; assay type: in vitro ADME; details: for remaining at 2 h, 1 uM: CD1, mouse, plasma
Procedure: (§1) Plasma stability of the compounds was assessed in CD1 mouse and human plasma. Plasma was spiked with 1 μL of a 10 mM of each test compound solution to produce a 1 uM incubation. Three separate 300 μl aliquots were then taken from each tube and incubated at 37°C for 2 h. At each time point (0, 15, 30, 60 and 120 min), 50 μL of plasma were collected from each sample. Samples were extracted by protein precipitation with 250 μL of 0.1% AcOH acetonitrile methanol 3–1 (v/v) containing 1uM internal standard and centrifuged for 10min at 2800rpm. Supernatants were collected prior the injection onto an LC-MS/MS system. Analyte/Internal standard peak area ratios were referenced to the zero time-point samples as 100% in order to determine the percentage of compound remaining for each time-point. Ln plots of the % remaining for each compound were used to determine the half-life for the plasma incubations.

[2] = Intrinsic clearance (CLint) assay, mouse liver microsomes; assay type: in vitro ADME; details: for half-life at 0.5 µM: mouse, pooled mouse liver microsomes, pH 7.4; for CLint Mouse: mouse liver microsomes; for CLpred Mouse: predicted metabolic clearance
In short: (§2)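 Pooled liver microsomes (0.5 mg/mL protein) with test compound at 0.5 μM (0.5% DMSO), 5 mM MgCl2 and pH 7.4 phosphate buffer were run at 37°C; 1 mM NADPH started the reaction. Samples at 0-45 min were analysed by LC-MS/MS; t1/2 and CLint were derived from the ln peak-area-ratio slope.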

[3] = tested on: M. bovis; details: cited from earlier work
[4] = tested on: intracellular mycobacterial survival in murine bone marrow-derived macrophages; set-up: method as in PMID 25229313; details: cited from earlier work
[5] = Chemi-Luminescent Nitrogen Detection (CLND) kinetic solubility assay; assay type: physicochemical; details: phosphate buffered saline, pH 7.4
In short: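 10 mM DMSO stock diluted 5 μL into 100 uL pH 7.4 phosphate buffered saline, equilibrated 1 h at room temperature, then filtered. Filtrate quantified by calibrated flow-injection CLND; standard error ±30 μM, upper limit 500 μM.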

[6] = Plasma stability assay, human plasma; assay type: in vitro ADME; details: for remaining at 2 h, 1 uM: human, plasma
Procedure: as §1

[7] = Artificial membrane permeability assay; assay type: in vitro ADME; details: PAMPA, pH 7.4
In short: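 PAMPA using L-α-phosphatidylcholine in cholesterol decane as the membrane, with 50 mM phosphate buffer containing 0.5% encapsin at pH 7.4 on both sides. Compound added to donor; plates shaken 3 h at room temperature in duplicate. Donor and receiver concentrations measured by HPLC; permeability reported in nm/sec.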

[8] = tested on: Mtb H37Rv; details: for MIC against Mtb H37Rv: duplicate, analogues
[9] = target: T1, human serum albumin (Homo sapiens, UniProt P02768); test: Human serum albumin (HSA) binding assay; assay type: in vitro ADME; details: for % HSA: human serum albumin binding
T1 sequence (P02768 25-609): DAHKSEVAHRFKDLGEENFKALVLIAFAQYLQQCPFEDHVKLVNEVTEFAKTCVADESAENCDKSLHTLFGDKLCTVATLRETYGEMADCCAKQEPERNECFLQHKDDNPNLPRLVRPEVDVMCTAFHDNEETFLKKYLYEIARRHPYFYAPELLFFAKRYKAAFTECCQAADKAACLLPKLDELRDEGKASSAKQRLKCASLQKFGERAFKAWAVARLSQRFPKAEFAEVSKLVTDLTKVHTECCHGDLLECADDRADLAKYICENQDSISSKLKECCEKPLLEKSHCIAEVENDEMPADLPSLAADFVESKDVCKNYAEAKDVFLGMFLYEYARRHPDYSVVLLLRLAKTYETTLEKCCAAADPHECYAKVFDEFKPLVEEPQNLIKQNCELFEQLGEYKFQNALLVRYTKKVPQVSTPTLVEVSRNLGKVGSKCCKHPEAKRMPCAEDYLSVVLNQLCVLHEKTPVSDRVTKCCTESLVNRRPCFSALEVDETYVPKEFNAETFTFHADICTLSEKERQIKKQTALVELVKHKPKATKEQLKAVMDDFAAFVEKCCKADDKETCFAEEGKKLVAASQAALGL
In short: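 Gradient retention times measured on an immobilized HSA HPLC column with UV detection. Retention times converted to HSA binding values by a linear calibration against reference compounds of known binding, run before each batch.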

[10] = Intrinsic clearance (CLint) assay, human liver microsomes; assay type: in vitro ADME; details: for half-life at 0.5 µM: human, pooled human liver microsomes; for CLint Human: human liver microsomes; for CLpred Human: predicted metabolic clearance
In short: as §2

[11] = Chrom logD assay; assay type: physicochemical
In short: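 Reversed-phase C18 HPLC with fast acetonitrile gradient starting from 100% pH 7.4 buffer; CHI from retention times via calibration standards. ChromlogD = 0.0857CHI − 2.00; assay error ±3 CHI or ±0.25 ChromlogD.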

[12] = tested on: mycobacteria; set-up: method as in PMID 25229313; details: cited from earlier work
[13] = target: T1, human serum albumin; test: HPLC retention on an immobilised HSA column; HSA immobilised on the column; gradient retention times of the compounds converted to % HSA binding by a calibration set of compounds of known HSA binding; UV detection
[14] = 2 hours at 37°C, triplicates, read-out: Plasma stability (% remaining) Mouse
[15] = read-out: Microsomal t1/2 Mouse
[16] = kinetic aqueous solubility by CLND, read-out: Solubility
[17] = 2 hours at 37°C, triplicates, read-out: Plasma stability (% remaining) Human
[18] = passive artificial membrane permeability, read-out: Permeability
[19] = pH 7.4, human liver microsomes, read-out: Microsomal t1/2 Human

Compound	remaining at 2 h, 1 uM [1, 14] [%]	% LBF Mouse ([2]; liver blood flow) [%]	CLint Mouse [2] [mL/min/g tissue]	half-life at 0.5 µM [2, 15] [h]	CLpred Mouse [2] [mL/min/kg]	solubility kinetic at 1 h [5, 16] [µg/mL]	remaining at 2 h, 1 uM [6, 17] [%]	Papp at 3 h [7, 18] [×10⁻⁶ cm/s]	MIC against Mtb H37Rv [8] [µM]	% HSA [9] [%]	CLint Human [10] [mL/min/g tissue]	half-life at 0.5 µM [10, 19] [h]	% LBF Human ([10]; liver blood flow) [%]	CLpred Human [10] [mL/min/kg]	chromatographic logD ([11]; pH 7.4, read-out: Log D)	other results
CC(C)C[C@@H]1NC(=O)[C@H](Cc2c[nH]c3ccccc23)NC(=O)[C@@H](CCCN)NC(=O)[C@H](CC(N)=O)NC(=O)[C@H](C(C)C)NC(=O)[C@@H](CC(C)C)NC1=O [Compound 1c, wollamide B] (cyclo([dOrn]WL[dL]VN))	–	–	–	–	–	–	–	–	–	–	–	–	–	–	–	Plasma stability (% remaining), Mouse plasma ([1]; 2 h at 37°C, Table 1): More than 90 % remaining; remaining at 2 h, 1 uM ([1]; 2 h at 37°C, Table 1, read-out: Plasma stability (% remaining), Mouse plasma): 90%; Mouse CLint ([2]; Table 1): <0.50 mL/min/g; Mouse predicted % LBF ([2]; liver blood flow, Table 1): <16.83%; half-life at 0.5 µM ([2]; Table 1, read-out: Mouse microsomal half-life): > 2.31 h; IC50: 56 µM; IC50 [3]: 3.1 µM; intracellular mycobacterial survival [4]: reduce the intracellular mycobacterial survival; solubility kinetic at 1 h ([5]; kinetic aqueous solubility, Table 1, read-out: Solubility CLND): 151 µg/mL (≈ 204 µM); Plasma stability (% remaining), Human Plasma ([6]; 2 h at 37°C, Table 1): More than 90 % remaining; remaining at 2 h, 1 uM ([6]; 2 h at 37°C, Table 1, read-out: Plasma stability (% remaining), Human Plasma): 100%; Papp at 3 h ([7]; Table 1, read-out: Artificial membrane permeability): < 0.3 ×10⁻⁶ cm/s; Mtb H37Rv MIC ([8]; Table 1): 0.6 µM; % Human serum albumin binding ([9]; Table 1): 73% and 72.66%; Human CLint ([10]; Table 1): 0.97 mL/min/g; half-life at 0.5 µM ([10]; pH 7.4, Table 1, read-out: Human microsomal half-life): 0.947 h; Human predicted % LBF ([10]; liver blood flow, Table 1): 56.88%; % LBF given as a fraction (metabolic stability class) ([10]; predicted hepatic clearance, microsomal stability): 1/2; chromatographic logD ([11]; pH 7.4, Table 1, read-out: Log D pH = 7.4): 1.8
CC(C)C[C@@H]1NC(=O)[C@@H](Cc2ccc(Cl)cc2)NC(=O)[C@@H](CCCN)NC(=O)[C@H](CC(N)=O)NC(=O)[C@H](C(C)C)NC(=O)[C@@H](CC(C)C)NC1=O [Compound 14c] (cyclo(L[dL]VN[dOrn][dPhe(4-Cl)]))	70	<16.27	<0.48	> 2.31	<20.50	≥ 218	104	< 1	40 (≈ 29.4 µg/mL)	70.25	<0.40	> 2.31	<35.08	6.31	1.9	–
CC(C)C[C@@H]1NC(=O)[C@@H](CC(C)C)NC(=O)[C@@H](CCCN)NC(=O)[C@H](CC(N)=O)NC(=O)[C@H](C(C)C)NC(=O)[C@H](Cc2c[nH]c3ccccc23)NC1=O [Compound 21c] (cyclo(LWVN[dOrn][dL]))	98	<16.83	<0.50	> 2.31	<21.21	≥ 210	97	< 0.3	20 (≈ 14.8 µg/mL)	79.64	<0.40	> 2.31	<35.25	<6.35	1.89	–
desotamide B	–	–	–	–	–	–	–	–	–	–	–	–	–	–	–	antimycobacterial activity [12]: no antimycobacterial activity
wollamide B (peptide)	–	–	–	–	–	–	–	–	–	–	–	–	–	–	–	% Human serum albumin binding [13]: 72.7%
